ChEMBL document CHEMBL4342483, “Codrug Approach for the Potential Treatment of EML4-ALK Positive Lung Cancer” (ACS Med Chem Lett, 2020)
Activity calls are given as the source filed them. No cut-off for these calls is given here.

Tests used:
A549 [1] = experiment: Cytotoxicity against ALK-negative human A549 cells assessed as cell growth inhibition by Chou-Talalay method; type: functional
[2] = biological target: ALK tyrosine kinase receptor (Homo sapiens) (UniProt Q9UM73); conditions: 500 nM
Description: Inhibition of ALK-mediated STAT3 phosphorylation in EML4-ALK-positive human CCL185IG cells at 500 nM measured after 24 hrs in presence of pictilisib by Western blot analysis

[3] = Cytotoxicity against EML4-ALK-positive human CCL185IG cells assessed as cell growth inhibition by Chou-Talalay method; type: functional
[4] = Cytotoxicity against EML4-ALK-positive human CCL185IG cells harboring wild type PI3KCA and CDKN2A and KRAS mutations assessed as cell growth inhibition measured after 72 hrs by MTT assay; type: functional
[5] = biological target: ALK tyrosine kinase receptor (Homo sapiens) (UniProt Q9UM73); conditions: 500 nM; remark: listed apart in the source
Description: Inhibition of ALK-mediated STAT3 phosphorylation in EML4-ALK-positive human CCL185IG cells at 500 nM measured after 24 hrs by Western blot analysis

A549 [6] = experiment: Cytotoxicity against ALK-negative human A549 cells harboring wild type PI3KCA and CDKN2A and KRAS mutations assessed as cell growth inhibition measured after 72 hrs by MTT assay; type: functional; conditions: A549, 72 h
[7] = Hydrolytic stability in phosphate buffer and DMSO supplemented with 4% bovine serum albumin assessed as rate constant at pH 6.5 by HPLC analysis
[8] = Half life in phosphate buffer and DMSO supplemented with 4% bovine serum albumin at pH 6.5 by HPLC analysis; type: physicochemical; conditions: phosphate buffer and DMSO with 4% bovine serum albumin
[9] = Hydrolytic stability in phosphate buffer and DMSO supplemented with 4% bovine serum albumin assessed as rate constant at pH 7.4 by HPLC analysis
[10] = Half life in rat plasma; type: ADME, cell-free
[11] = Drug degradation in rat plasma assessed as compound hydrolysis with zero order rate constant; type: ADME, cell-free
[12] = Half life in phosphate buffer and DMSO supplemented with 4% bovine serum albumin at pH 7.4 by HPLC analysis; type: physicochemical; conditions: phosphate buffer and DMSO with 4% bovine serum albumin
[13] = Half life in phosphate buffer at pH 7.4 and d6-DMSO (1:1) by kinetic time-course NMR method; type: physicochemical; conditions: phosphate buffer and d6-DMSO (1:1)
[14] = Prodrug conversion in phosphate buffer at pH 6.8 and d6-DMSO (1:1) assessed as rate constant for release of active compound mimetics by kinetic time-course NMR method; type: ADME
[15] = Prodrug conversion in phosphate buffer at pH 7.4 and d6-DMSO (1:1) assessed as rate constant for release of active compound mimetics by kinetic time-course NMR method; type: ADME
[16] = Half life in phosphate buffer at pH 6.4 and d6-DMSO (1:1) by kinetic time-course NMR method; type: physicochemical; conditions: phosphate buffer and d6-DMSO (1:1)
[17] = Prodrug conversion in phosphate buffer at pH 6.4 and d6-DMSO (1:1) assessed as rate constant for release of active compound mimetics by kinetic time-course NMR method; type: ADME
[18] = Half life in phosphate buffer at pH 6.8 and d6-DMSO (1:1) by kinetic time-course NMR method; type: physicochemical; conditions: phosphate buffer and d6-DMSO (1:1)
[19] = Drug degradation in rat plasma assessed as compound hydrolysis with first order rate constant; type: ADME, cell-free
A549 [20] = experiment: Synergistic growth inhibition of ALK-negative human A549 cells assessed as combination index at compound:ceritinib concentration ratio of 1:1 and fractional effect of 0.76 in presence of ceritinib by Chou-Talalay method; type: functional
[21] = Synergistic growth inhibition of EML4-ALK-positive human CCL185IG cells assessed as combination index at compound:ceritinib concentration ratio of 1:1 and fractional effect of 0.25 in presence of ceritinib by Chou-Talalay method; type: functional
[22] = Synergistic growth inhibition of EML4-ALK-positive human CCL185IG cells assessed as combination index at compound:ceritinib concentration ratio of 1:1 and fractional effect of 0.76 in presence of ceritinib by Chou-Talalay method; type: functional
A549 [23] = experiment: Synergistic growth inhibition of ALK-negative human A549 cells assessed as combination index at compound:ceritinib concentration ratio of 1:1 and fractional effect of 0.96 in presence of ceritinib by Chou-Talalay method; type: functional
A549 [24] = experiment: Synergistic growth inhibition of ALK-negative human A549 cells assessed as combination index at compound:ceritinib concentration ratio of 1:1 and fractional effect of 0.5 in presence of ceritinib by Chou-Talalay method; type: functional
A549 [25] = experiment: Synergistic growth inhibition of ALK-negative human A549 cells assessed as combination index at compound:ceritinib concentration ratio of 1:1 and fractional effect of 0.25 in presence of ceritinib by Chou-Talalay method; type: functional
[26] = Synergistic growth inhibition of EML4-ALK-positive human CCL185IG cells assessed as combination index at compound:ceritinib concentration ratio of 1:1 and fractional effect of 0.5 in presence of ceritinib by Chou-Talalay method; type: functional
[27] = Synergistic growth inhibition of EML4-ALK-positive human CCL185IG cells assessed as combination index at compound:ceritinib concentration ratio of 1:1 and fractional effect of 0.96 in presence of ceritinib by Chou-Talalay method; type: functional

Chain of ALK tyrosine kinase receptor (Homo sapiens) (Q9UM73 19-1620 limits assumed): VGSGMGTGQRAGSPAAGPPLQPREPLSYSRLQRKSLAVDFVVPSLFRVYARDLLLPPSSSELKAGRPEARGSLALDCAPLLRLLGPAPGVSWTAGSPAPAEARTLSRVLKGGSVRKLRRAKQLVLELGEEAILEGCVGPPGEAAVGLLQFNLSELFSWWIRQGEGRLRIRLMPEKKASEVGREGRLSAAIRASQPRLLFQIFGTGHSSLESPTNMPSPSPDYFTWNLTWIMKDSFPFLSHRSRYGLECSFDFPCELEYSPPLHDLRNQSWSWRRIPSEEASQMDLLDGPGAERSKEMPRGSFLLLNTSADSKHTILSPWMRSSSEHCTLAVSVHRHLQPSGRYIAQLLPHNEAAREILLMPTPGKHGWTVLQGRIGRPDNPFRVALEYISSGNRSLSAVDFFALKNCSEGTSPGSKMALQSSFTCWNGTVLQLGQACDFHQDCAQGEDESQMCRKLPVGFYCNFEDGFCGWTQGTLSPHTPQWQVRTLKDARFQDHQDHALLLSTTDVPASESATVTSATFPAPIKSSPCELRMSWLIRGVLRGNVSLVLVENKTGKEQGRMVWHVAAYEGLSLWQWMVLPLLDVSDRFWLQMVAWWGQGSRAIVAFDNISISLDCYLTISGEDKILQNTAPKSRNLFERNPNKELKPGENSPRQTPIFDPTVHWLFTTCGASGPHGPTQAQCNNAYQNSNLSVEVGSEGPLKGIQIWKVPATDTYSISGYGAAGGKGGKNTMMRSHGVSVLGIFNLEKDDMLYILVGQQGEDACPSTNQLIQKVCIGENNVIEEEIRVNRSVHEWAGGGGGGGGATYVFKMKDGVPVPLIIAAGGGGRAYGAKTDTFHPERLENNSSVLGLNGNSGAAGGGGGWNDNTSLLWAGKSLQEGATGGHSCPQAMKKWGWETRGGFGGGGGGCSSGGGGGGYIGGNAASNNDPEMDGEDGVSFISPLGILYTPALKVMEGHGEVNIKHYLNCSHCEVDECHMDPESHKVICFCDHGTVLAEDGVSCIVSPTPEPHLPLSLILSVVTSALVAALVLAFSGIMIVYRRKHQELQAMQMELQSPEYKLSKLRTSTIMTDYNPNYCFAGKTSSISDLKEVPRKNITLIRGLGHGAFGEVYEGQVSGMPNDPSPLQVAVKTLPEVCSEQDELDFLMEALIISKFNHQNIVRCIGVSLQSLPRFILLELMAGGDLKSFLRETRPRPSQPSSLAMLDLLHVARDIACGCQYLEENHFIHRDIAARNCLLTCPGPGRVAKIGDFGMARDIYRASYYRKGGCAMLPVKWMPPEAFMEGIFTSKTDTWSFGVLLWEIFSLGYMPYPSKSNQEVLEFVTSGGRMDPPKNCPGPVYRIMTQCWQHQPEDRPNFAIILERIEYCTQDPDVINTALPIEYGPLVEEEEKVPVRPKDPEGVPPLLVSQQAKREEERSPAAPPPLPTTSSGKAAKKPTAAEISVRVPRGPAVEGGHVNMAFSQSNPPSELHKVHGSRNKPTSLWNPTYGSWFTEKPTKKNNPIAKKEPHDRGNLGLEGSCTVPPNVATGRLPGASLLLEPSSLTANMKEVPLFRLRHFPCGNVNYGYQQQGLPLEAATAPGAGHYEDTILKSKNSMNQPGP

| Structure (SMILES) | D50 (A549 [1]) [µM] | D50 [3] [µM] | GI50 [4] [µM] | GI50 (A549 [6]) [µM] | K [7] [h⁻¹] | half-life [8] [h] | K [9] [h⁻¹] | half-life [10] [h] | half-life [12] [h] | K [19] [min⁻¹] | also measured |
| --- | --- | --- | --- | --- | --- | --- | --- | --- | --- | --- | --- |
| Cc1cc(Nc2ncc(Cl)c(Nc3ccccc3S(=O)(=O)C(C)C)n2)c(OC(C)C)cc1C1CCNCC1 [CERITINIB] | 0.85 | 0.57 | 0.565 | 0.845 | – | – | – | – | – | – | inhibition [2]: Active; inhibition [5]: Active |
| Cc1cc(Nc2ncc(Cl)c(Nc3ccccc3S(=O)(=O)C(C)C)n2)c(OC(C)C)cc1C1CCN(C(=O)OC(C)OC(=O)C[C@H](N)C(=O)n2ncc3c(-c4nc(N5CCOCC5)c5sc(CN6CCN(S(C)(=O)=O)CC6)cc5n4)cccc32)CC1 (some centres not stated) | – | – | – | – | 0.036 | 19.3 | 0.094 | 0.967 | 7.4 | – | K [11]: 0.069 µM/s |
| CC(OC(=O)C[C@H](N)C(=O)n1ncc2cc(Br)ccc21)OC(=O)N1CCC(c2ccccc2)CC1 (some centres not stated) | – | – | – | – | – | – | – | – | – | – | half-life [13]: 0.39 h; K [14]: 0.84 h⁻¹; K [15]: 1.37 h⁻¹; half-life [16]: 4.64 h; K [17]: 0.22 h⁻¹; half-life [18]: 0.7 h |
| Cc1cc(Nc2ncc(Cl)c(Nc3ccccc3S(=O)(=O)C(C)C)n2)c(OC(C)C)cc1C1CCN(C(=O)OC(C)OC(=O)CC(N)CC(=O)n2ncc3c(-c4nc(N5CCOCC5)c5sc(CN6CCN(S(C)(=O)=O)CC6)cc5n4)cccc32)CC1 (configuration not stated) | – | – | – | – | 0.058 | 12 | 0.091 | 1.15 | 7.6 | 0.01 | – |
| CS(=O)(=O)N1CCN(Cc2cc3nc(-c4cccc5[nH]ncc45)nc(N4CCOCC4)c3s2)CC1 [PICTILISIB] | 1.22 | 1.12 | 1.18 | 1.22 | – | – | – | – | – | – | CI (A549 [20]): 0.55; CI [21]: 0.52; CI [22]: 0.3; CI (A549 [23]): 0.35; CI (A549 [24]): 0.72; CI (A549 [25]): 0.95; CI [26]: 0.37; CI [27]: 0.24 |
| Cc1cc(Nc2ncc(Cl)c(Nc3ccccc3S(=O)(=O)C(C)C)n2)c(OC(C)C)cc1C1CCN(C(=O)OC(C)OC(=O)[C@@H](N)CC(=O)n2ncc3c(-c4nc(N5CCOCC5)c5sc(CN6CCN(S(C)(=O)=O)CC6)cc5n4)cccc32)CC1 (some centres not stated) | – | – | – | – | 0.02 | 34.7 | 0.036 | 0.633 | 19.3 | 0.018 | – |
